Reference: patent publication US20140107219A1, “LOCAL ANAESTHETIC” (VITA (EUROPE) LIMITED, priority 2011, published 2014)
Several values for one entry are separate records, joined by “and”; a condition that tells them apart may be missing. Identical values can stand only once. Like-named read-outs stand apart in the source and are kept apart here.

Experiments:
[1] = tested on: isolated sciatic nerve of the rat; assay: Evoked compound action potential (CAP) of the isolated rat sciatic nerve in a three-chamber bath (ex vivo): inhibition and recovery after washout; conditions: for IT100 / IT0: 1.41 mg/mL
[2] = biological target: T1, hNav1.2 sodium channels (SCN2A gene, expressed in CHO cells) (Homo sapiens, UniProt Q99250); assay: Automated patch clamp (PatchXpress 7000A), cloned hNav1.2 in CHO cells, tonic and phasic; type: cell-based; conditions: for inhibition at 2000 µM: CHO
T1 construct: expressed in transfected cells; host or cells: CHO cells
From the text: (§1) 1. Cloned hNav1.2 sodium channels (SCN2A gene, expressed in CHO cells). 2. Cloned hNav1.6 sodium channels (SCN8A gene, expressed in CHO cells).

[3] = tested on: gastrocnemius muscle; assay: In vivo muscle CAP (mCAP, EMG integral) after intramuscular injection, gastrocnemius muscle; set-up: species or system rat; conditions: 10.8 mg/kg intramuscular
[4] = biological target: T2, hNav1.6 sodium channels (SCN8A gene, expressed in CHO cells) (Homo sapiens, UniProt Q9UQD0); assay: Automated patch clamp (PatchXpress 7000A), cloned hNav1.6 in CHO cells, tonic and phasic; type: cell-based; conditions: for inhibition at 2000 µM: CHO; for IC50: FIG. 42
T2 construct: expressed in transfected cells; host or cells: CHO cells
Experimental: In this example, the in vitro effects of 2-heptanone on the following ion channels were evaluated at room temperature using the PatchXpress 7000A (Molecular Devices), an automatic parallel patch clamp system:
as §1
The effects of 2-heptanone were evaluated at 0.73, 1.46, 2.19, and 2.92 mg/ml with each concentration tested in two cells (n=2). The duration of exposure to each concentration of 2-heptanone was 5 minutes. Tables 2 to 5 show the individual results from each concentration followed by individual concentration-response curves. The positive controls (Table 6) confirm the sensitivity of the test systems to inhibition.
. Br. J. Pharmacol. 164, 719-730). […]

[5] = 2 mM (0.46 mg/mL), single cells

T2 sequence (Q9UQD0 whole entry): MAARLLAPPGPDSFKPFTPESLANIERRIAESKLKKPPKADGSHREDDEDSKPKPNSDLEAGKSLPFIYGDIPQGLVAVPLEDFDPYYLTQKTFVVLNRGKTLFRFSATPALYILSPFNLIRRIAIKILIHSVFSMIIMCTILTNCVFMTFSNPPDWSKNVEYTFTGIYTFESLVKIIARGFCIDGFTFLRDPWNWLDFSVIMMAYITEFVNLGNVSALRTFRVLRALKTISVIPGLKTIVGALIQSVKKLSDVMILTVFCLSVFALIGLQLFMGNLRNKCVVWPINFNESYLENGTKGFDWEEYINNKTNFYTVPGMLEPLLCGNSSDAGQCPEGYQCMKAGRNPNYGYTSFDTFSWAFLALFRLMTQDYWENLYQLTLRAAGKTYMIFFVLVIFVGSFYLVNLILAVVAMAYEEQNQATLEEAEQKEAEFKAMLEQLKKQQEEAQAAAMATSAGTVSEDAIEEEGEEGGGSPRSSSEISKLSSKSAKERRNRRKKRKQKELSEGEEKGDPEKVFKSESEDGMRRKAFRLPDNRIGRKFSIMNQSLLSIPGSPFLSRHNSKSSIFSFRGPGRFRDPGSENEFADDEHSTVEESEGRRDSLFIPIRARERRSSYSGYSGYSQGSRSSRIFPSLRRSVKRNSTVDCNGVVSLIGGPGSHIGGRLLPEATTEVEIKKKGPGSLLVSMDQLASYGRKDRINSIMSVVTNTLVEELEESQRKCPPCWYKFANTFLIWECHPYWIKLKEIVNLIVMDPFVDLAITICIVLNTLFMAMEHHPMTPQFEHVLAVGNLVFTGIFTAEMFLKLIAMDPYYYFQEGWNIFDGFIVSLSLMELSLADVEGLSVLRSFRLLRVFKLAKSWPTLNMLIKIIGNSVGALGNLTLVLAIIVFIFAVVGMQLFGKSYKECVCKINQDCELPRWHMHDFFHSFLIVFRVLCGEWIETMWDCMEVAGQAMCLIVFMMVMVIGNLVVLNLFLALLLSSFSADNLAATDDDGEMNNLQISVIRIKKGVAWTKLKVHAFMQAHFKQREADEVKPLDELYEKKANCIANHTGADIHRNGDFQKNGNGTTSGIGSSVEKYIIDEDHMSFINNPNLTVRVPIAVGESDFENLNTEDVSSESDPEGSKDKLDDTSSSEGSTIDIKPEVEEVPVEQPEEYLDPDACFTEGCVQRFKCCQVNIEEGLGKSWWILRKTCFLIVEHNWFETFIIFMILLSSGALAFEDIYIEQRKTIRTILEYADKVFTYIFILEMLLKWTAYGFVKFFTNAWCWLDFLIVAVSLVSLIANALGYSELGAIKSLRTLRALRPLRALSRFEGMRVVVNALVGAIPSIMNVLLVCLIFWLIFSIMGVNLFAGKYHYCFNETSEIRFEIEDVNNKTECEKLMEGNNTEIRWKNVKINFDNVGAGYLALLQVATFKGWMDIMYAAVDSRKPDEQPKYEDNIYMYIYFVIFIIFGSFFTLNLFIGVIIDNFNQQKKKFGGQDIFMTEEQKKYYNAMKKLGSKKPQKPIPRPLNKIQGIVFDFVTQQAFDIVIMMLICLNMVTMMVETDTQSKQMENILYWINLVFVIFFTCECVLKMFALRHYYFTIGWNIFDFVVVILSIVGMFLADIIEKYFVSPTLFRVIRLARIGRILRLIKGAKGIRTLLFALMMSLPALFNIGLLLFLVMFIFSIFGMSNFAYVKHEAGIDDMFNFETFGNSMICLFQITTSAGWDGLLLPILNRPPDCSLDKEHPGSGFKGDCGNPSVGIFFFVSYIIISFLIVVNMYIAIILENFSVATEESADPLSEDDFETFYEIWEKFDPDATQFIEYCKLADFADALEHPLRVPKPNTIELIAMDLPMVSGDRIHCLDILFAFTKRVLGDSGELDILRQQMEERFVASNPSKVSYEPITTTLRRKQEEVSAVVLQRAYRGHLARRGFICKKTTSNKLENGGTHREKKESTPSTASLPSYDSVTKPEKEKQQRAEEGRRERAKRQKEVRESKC
T1 sequence (Q99250 whole entry): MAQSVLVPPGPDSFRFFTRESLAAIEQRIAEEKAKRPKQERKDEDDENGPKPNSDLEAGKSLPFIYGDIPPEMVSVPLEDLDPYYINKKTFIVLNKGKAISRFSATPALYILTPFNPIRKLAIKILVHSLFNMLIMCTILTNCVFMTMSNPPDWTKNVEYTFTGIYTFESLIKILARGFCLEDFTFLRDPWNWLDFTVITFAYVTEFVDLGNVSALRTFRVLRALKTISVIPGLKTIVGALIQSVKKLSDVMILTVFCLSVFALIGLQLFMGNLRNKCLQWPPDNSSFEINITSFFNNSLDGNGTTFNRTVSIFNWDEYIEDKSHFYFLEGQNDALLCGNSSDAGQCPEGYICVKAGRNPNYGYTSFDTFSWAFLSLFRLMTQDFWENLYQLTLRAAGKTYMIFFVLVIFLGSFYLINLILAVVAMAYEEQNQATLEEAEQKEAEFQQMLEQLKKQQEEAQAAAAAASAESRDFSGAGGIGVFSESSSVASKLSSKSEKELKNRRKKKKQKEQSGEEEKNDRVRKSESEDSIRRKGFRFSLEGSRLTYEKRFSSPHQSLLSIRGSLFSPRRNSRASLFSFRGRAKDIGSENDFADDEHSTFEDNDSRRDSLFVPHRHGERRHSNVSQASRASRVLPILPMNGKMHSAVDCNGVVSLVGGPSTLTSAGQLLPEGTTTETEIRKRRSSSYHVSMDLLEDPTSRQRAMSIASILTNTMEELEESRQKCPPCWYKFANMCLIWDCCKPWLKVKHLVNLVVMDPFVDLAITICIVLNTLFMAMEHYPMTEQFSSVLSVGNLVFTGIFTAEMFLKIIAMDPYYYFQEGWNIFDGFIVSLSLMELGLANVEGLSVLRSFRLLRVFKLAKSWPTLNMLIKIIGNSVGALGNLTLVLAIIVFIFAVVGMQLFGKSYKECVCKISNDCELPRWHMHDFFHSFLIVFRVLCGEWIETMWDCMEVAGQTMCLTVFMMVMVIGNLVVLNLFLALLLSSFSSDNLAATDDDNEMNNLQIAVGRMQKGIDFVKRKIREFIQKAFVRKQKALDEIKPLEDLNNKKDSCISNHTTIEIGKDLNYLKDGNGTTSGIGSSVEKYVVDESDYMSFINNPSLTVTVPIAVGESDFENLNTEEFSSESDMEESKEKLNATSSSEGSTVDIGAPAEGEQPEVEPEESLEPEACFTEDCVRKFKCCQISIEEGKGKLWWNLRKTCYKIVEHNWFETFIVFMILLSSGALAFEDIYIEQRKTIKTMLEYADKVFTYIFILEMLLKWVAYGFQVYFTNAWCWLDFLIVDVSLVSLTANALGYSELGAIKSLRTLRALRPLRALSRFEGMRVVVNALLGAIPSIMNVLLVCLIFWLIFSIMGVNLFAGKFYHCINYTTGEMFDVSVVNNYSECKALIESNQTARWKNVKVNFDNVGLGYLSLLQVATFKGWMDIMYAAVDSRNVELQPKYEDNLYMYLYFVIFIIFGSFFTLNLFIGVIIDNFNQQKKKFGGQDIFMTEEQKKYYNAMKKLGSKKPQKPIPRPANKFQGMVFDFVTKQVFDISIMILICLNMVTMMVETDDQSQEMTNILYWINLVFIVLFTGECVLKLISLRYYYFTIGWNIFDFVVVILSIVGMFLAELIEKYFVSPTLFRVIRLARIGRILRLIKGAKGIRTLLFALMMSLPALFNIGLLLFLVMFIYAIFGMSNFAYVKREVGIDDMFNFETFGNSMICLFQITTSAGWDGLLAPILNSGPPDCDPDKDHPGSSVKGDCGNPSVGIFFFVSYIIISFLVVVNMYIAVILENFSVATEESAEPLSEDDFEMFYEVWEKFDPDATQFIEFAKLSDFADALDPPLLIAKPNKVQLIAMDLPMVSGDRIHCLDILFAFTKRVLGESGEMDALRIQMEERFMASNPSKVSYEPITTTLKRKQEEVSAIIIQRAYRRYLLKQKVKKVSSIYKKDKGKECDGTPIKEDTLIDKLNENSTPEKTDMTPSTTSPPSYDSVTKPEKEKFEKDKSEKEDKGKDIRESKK

With CCN(CC)CC(=O)Nc1c(C)cccc1C [lidocaine, 2-(diethylamino)-N-(2,6-dimethylphenyl)-acetamide, reference compound] the “IT100 / IT0” value [1] was 320 ± 14.96 s, the “IT100 / IT0” value ([1]; listed as Lidocaine) was 320.3 ± 14.96 s and the IT0 ([1]; 10 mM, stirred saline, individual nerves) was 90 s and 150 s. For the same compound, the “IT50 (time to inhibit CAP amplitude to 50% of control)” value ([1]; 10 mg/mL) was 12.0 ± 0.95 s, the “recovery of the CAP after washout, % of control” value ([1]; after 1.41 mg/mL) was 95% and the “IC50 (concentration required to inhibit the CAP to 50% of control)” value ([1]; estimated from time-response curves, GraphPad Prism 5) was 337 ± 1 mg/L. The “Individual Data Points (% Inhibition), Nav1.2 (positive control)” value [2, 5] was 74.9%, the inhibition at 2000 µM ([2]; read-out: Individual Data Points (% Inhibition), Nav1.2 (positive control), 2 mM (0.46 mg/mL), single cells) was 76.1% and the inhibition at 2000 µM ([2]; read-out: Mean % Inhibition of Nav1.2 (positive control), 2 mM (0.46 mg/mL)) was 75.5%. For the same compound, the “IT50 of the integral of mCAPs” value [3] was 19.30 ± 1.92 s, the “recovery of mCAP, % of initial values after 3 h” value [3] was 70.3±8.67% and 70.3% and the “Individual Data Points (% Inhibition), Nav1.6 (positive control)” value [4, 5] was 59.3%. The inhibition at 2000 µM ([4]; read-out: Individual Data Points (% Inhibition), Nav1.6 (positive control), 2 mM (0.46 mg/mL), single cells) was 63.8%, the inhibition at 2000 µM ([4]; read-out: Mean % Inhibition of Nav1.6 (positive control), 2 mM (0.46 mg/mL)) was 61.5% and the “hNav1.6 IC50, phasic” value ([4]; Example 18, mean ± SEM) was 70 ± 10 mg/L. The “hNav1.6 IC50, tonic” value ([4]; Example 18, mean ± SEM) was 290 ± 10 mg/L, the IC50 ([4]; read-out: Nav1.6 IC50, phasic) was 260 µM and the IC50 ([4]; read-out: Nav1.6 IC50, tonic) was 1100 µM.
